Data published in patent US20070249670A1, “Glycogen Phosphorylase Inhibitor Compounds and Pharmaceutical Compositions Thereof” (SMITHKLINE BEECHAM CORPORATION, priority 2004, published 2007).
Where a name gives a salt, the structure may show the parent alone.

These compounds were tested against T1, human liver glycogen phosphorylase a (HLGPa) (Homo sapiens, UniProt P06737) (assay: Human liver glycogen phosphorylase a enzymatic activity assay (coupled, fluorescent resorufin readout, with and without 10 mM glucose)). Conditions: human liver glycogen phosphorylase a; table does not say whether with or without 10 mM glucose.
T1 construct: creating a full-length cDNA fused at the 5′ end to codons for methionine-glycine-alanine-histidine; 6xHis tag (leader Met-Gly-Ala-His6-Gly-Gly) (N); made in house; host or cells: E. coli (bacterial expression plasmid pTXK1007LTev)
T1 sequence (P06737 2-847 limits assumed): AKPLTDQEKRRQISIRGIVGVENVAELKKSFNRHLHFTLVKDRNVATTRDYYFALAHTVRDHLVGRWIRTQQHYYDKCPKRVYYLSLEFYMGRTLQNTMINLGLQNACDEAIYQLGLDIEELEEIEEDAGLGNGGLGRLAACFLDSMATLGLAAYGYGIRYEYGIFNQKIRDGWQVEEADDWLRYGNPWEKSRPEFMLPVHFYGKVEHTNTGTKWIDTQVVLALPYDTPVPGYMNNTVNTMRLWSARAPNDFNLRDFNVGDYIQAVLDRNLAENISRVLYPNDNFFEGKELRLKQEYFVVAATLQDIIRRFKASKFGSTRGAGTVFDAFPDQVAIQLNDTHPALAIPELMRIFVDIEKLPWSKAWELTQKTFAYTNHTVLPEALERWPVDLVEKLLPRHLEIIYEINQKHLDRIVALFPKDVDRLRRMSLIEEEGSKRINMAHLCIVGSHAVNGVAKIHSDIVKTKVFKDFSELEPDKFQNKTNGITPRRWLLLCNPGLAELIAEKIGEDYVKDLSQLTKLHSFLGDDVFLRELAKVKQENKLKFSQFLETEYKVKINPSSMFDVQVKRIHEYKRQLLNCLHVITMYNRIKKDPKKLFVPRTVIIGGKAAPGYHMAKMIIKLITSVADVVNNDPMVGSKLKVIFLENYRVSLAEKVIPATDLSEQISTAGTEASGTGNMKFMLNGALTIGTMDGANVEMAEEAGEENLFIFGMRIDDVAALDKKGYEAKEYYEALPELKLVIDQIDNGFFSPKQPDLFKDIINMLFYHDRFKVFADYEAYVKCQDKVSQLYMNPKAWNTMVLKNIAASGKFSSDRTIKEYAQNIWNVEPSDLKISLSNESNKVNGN
Assay type: biochemical

| SMILES | IC50 [nM] |
| --- | --- |
| O=C(Nc1cc2ccccc2cc1C(=O)NC1(C(=O)O)CCOCC1)Nc1c(Cl)cccc1Cl [Example 283, 4-({[3-({[(2,6-Dichlorophenyl)amino]carbonyl}amino)-2-naphthalenyl]carbonyl}amino)tetrahydro-2H-pyran-4-carboxylic acid] | 7180 |
| O=C(Nc1cc2ccccc2cc1C(=O)NC1(C(=O)O)CCSCC1)Nc1c(Cl)cc(Cl)cc1Cl [Example 284, 4-({[3-({[(2,4,6-Trichlorophenyl)amino]carbonyl}amino)-2-naphthalenyl]carbonyl}amino)tetrahydro-2H-thiopyran-4-carboxylic acid] | 2310 |
| Cc1cc(C)c(NC(=O)Nc2cc3ccccc3cc2C(=O)NC2(C(=O)O)CCS(=O)(=O)CC2)c(C)c1 [Example 285, 4-({[3-({[(2,4,6-Trimethylphenyl)amino]carbonyl}amino)-2-naphthalenyl]carbonyl}amino)tetrahydro-2H-thiopyran-4-carboxylic acid 1,1-dioxide] | 3310 |
| O=C(Nc1cc2ccccc2cc1C(=O)NC1(C(=O)O)CCN(Cc2ccccc2)CC1)Nc1c(Cl)cccc1Cl [Example 286, 4-({[3-({[(2,6-Dichlorophenyl)amino]carbonyl}amino)-2-naphthalenyl]carbonyl}amino)-1-(phenylmethyl)-4-piperidinecarboxylic acid] | 1380 |
| Cc1cc(C)c(NC(=O)Nc2cc3ccccc3cc2C(=O)NC2(C(=O)O)CCN(C(=O)OC(C)(C)C)CC2)c(C)c1 [Example 287, 1-{[(1,1-Dimethylethyl)oxy]carbonyl}-4-({[3-({[(2,4,6-trimethylphenyl)amino]carbonyl}amino)-2-naphthalenyl]carbonyl}amino)-4-piperidinecarboxylic acid] | 430 |
| Cc1cc(C)c(NC(=O)Nc2cc3ccccc3cc2C(=O)NC2(C(=O)O)CCNCC2)c(C)c1 [Example 288, 4-({[3-({[(2,4,6-trimethylphenyl)amino]carbonyl}amino)-2-naphthalenyl]carbonyl}amino)-4-piperidinecarboxylic acid trifluoroacetate] | 6170 |
| CCCCN1CCC(NC(=O)c2cc3ccccc3cc2NC(=O)Nc2c(C)cc(C)cc2C)(C(=O)O)CC1 [Example 289, 1-Butyl-4-({[3-({[(2,4,6-trimethylphenyl)amino]carbonyl}amino)-2-naphthalenyl]carbonyl}amino)-4-piperidinecarboxylic acid] | 4390 |
| Cc1cc(C)c(NC(=O)Nc2cc3ccccc3cc2C(=O)NC2(C(=O)O)CCC(NCc3ccccc3)CC2)c(C)c1 (stereo not drawn) [Example 294, 4-[(phenylmethyl)amino]-1-({[3-({[(2,4,6-trimethylphenyl)amino]carbonyl}amino)-2-naphthalenyl]carbonyl}amino)cyclohexanecarboxylic acid] | 2530 |
| Cc1cc(C)c(NC(=O)Nc2cc3ccccc3cc2C(=O)NC2(C(=O)O)CCC(NCc3ccccc3)CC2)c(C)c1 (stereo not drawn) [Example 295, 4-[(phenylmethyl)amino]-1-({[3-({[(2,4,6-trimethylphenyl)amino]carbonyl}amino)-2-naphthalenyl]carbonyl}amino)cyclohexanecarboxylic acid] | 5560 |
| O=C(Nc1cc2ccccc2nc1C(=O)N[C@H](C(=O)O)C1CCCCC1)Nc1c(Cl)cccc1Cl [Example 298, (2S)-Cyclohexyl({[3-({[(2,6-dichlorophenyl)amino]carbonyl}amino)-2-quinolinyl]carbonyl}amino)ethanoic acid] | 150 |
| O=C(Nc1cc2ccccc2nc1C(=O)N[C@H](C(=O)O)C1CCCCC1)Nc1c(Cl)cc(Cl)cc1Cl [Example 299, (2S)-Cyclohexyl({[3-({[(2,4,6-trichlorophenyl)amino]carbonyl}amino)-2-quinolinyl]carbonyl}amino)ethanoic acid] | 480 |
| O=C(Nc1cc2ccccc2cc1C(=O)NC1(C(=O)O)CCCCCCC1)Nc1c(Cl)cc(Cl)cc1Cl [Example 303, 1-({[3-({[(2,4,6-trichlorophenyl)amino]carbonyl}amino)-2-naphthalenyl]carbonyl}amino)cyclooctanecarboxylic acid] | 57 |
| Cc1cc(C)c(NC(=O)Nc2cc3ccccc3nc2C(=O)NC2(C(=O)O)CCCCCC2)c(C)c1 [Example 306, 1-({[3-({[(2,4,6-trimethylphenyl)amino]carbonyl}amino)-2-quinolinyl]carbonyl}amino)cycloheptanecarboxylic acid] | 11 |

More lines, now with the values ahead:

| IC50 [nM] | SMILES |
| --- | --- |
| 1620 | O=C(Nc1cc2ccccc2cc1C(=O)NC1(C(=O)O)CCCCC1)Nc1c(Cl)cc(Cl)cc1Cl [Example 281, 1-({[3-({[(2,4,6-trichlorophenyl)amino]carbonyl}amino)-2-naphthalenyl]carbonyl}amino)cyclohexanecarboxylic acid] |
| 1150 | Cc1cc(C)c(NC(=O)Nc2cc3ccccc3cc2C(=O)NC2(C(=O)O)CCOCC2)c(C)c1 [Example 282, 4-({[3-({[(2,4,6-Trimethylphenyl)amino]carbonyl}amino)-2-naphthalenyl]carbonyl}amino)tetrahydro-2H-pyran-4-carboxylic acid] |
| 1240 | CCCC(=O)N1CCC(NC(=O)c2cc3ccccc3cc2NC(=O)Nc2c(C)cc(C)cc2C)(C(=O)O)CC1 [Example 290, 1-Butanoyl-4-({[3-({[(2,4,6-trimethylphenyl)amino]carbonyl}amino)-2-naphthalenyl]carbonyl}amino)-4-piperidinecarboxylic acid] |
| 6590 | O=C1CCC(NC(=O)c2cc3ccccc3cc2NC(=O)Nc2c(Cl)cccc2Cl)(C(=O)O)CC1 [Example 292, 1-({[3-({[(2,6-dichlorophenyl)amino]carbonyl}amino)-2-naphthalenyl]carbonyl}amino)-4-oxocyclohexanecarboxylic acid] |
| 540 | Cc1cc(C)c(NC(=O)Nc2cc3ccccc3cc2C(=O)NC2(C(=O)O)CCC(=NO)CC2)c(C)c1 (stereo not drawn) [Example 296, 4-(hydroxyimino)-1-({[3-({[(2,4,6-trimethylphenyl)amino]carbonyl}amino)-2-naphthalenyl]carbonyl}amino)cyclohexanecarboxylic acid] |
| 15600 | Cc1cc(C)c(NC(=O)Nc2nc3ccccc3cc2C(=O)N[C@H](C(=O)O)C2CCCCC2)c(C)c1 [Example 297, (2S)-cyclohexyl({[2-({[(2,4,6-trimethylphenyl)amino]carbonyl}amino)-3-quinolinyl]carbonyl}amino)ethanoic acid] |
| 27 | Cc1cc(C)c(NC(=O)Nc2cc3ccccc3nc2C(=O)N[C@H](C(=O)O)C2CCCCC2)c(C)c1 [Example 300, (2S)-Cyclohexyl({[3-({[(2,4,6-trimethylphenyl)amino]carbonyl}amino)-2-quinolinyl]carbonyl}amino)ethanoic acid] |
| 350 | O=C(Nc1cc2ccccc2cc1C(=O)NC1(C(=O)O)CCCCCC1)Nc1c(Cl)cc(Cl)cc1Cl [Example 301, 1-({[3-({[(2,4,6-Trichlorophenyl)amino]carbonyl}amino)-2-naphthalenyl]carbonyl}amino)cycloheptanecarboxylic acid] |
| 2 | Cc1cc(C)c(NC(=O)Nc2cc3ccccc3nc2C(=O)NC2(C(=O)O)CCCCCCC2)c(C)c1 [Example 307, 1-({[3-({[(2,4,6-trimethylphenyl)amino]carbonyl}amino)-2-quinolinyl]carbonyl}amino)cyclooctanecarboxylic acid] |
| 250 | Cc1cc(Br)cc(C)c1NC(=O)Nc1cc2ccccc2cc1C(=O)NC1(C(=O)O)CCCCCC1 [Example 308, 1-({[3-({[(4-bromo-2,6-dimethylphenyl)amino]carbonyl}amino)-2-naphthalenyl]carbonyl}amino)cycloheptanecarboxylic acid] |
| 11 | CCCc1cc(C)c(NC(=O)Nc2cc3ccccc3cc2C(=O)NC2(C(=O)O)CCCCCC2)c(C)c1 [Example 309, 1-({[3-({[(2,6-dimethyl-4-propylphenyl)amino]carbonyl}amino)-2-naphthalenyl]carbonyl}amino)cycloheptanecarboxylic acid] |
| 230 | Cc1cc(C)c(NC(=O)Nc2cc3ccccc3nc2C(=O)N[C@](C)(C(=O)O)C2CCCCC2)c(C)c1 [Example 312, 2-Cyclohexyl-N-{[3-({[(2,4,6-trimethylphenyl)amino]carbonyl}amino)-2-quinolinyl]carbonyl}-D-alanine] |
| 160 | CCCC[C@H](NC(=O)c1nc2ccccc2cc1NC(=O)Nc1c(C)cc(C)cc1C)C(=O)O [Example 313, N-{[3-({[(2,4,6-trimethylphenyl)amino]carbonyl}amino)-2-quinolinyl]carbonyl}-L-norleucine] |
| 1800 | CCCC[C@H](NC(=O)c1nc2ccccc2cc1NC(=O)Nc1c(Cl)cccc1Cl)C(=O)O [Example 314, N-{[3-({[(2,6-dichlorophenyl)amino]carbonyl}amino)-2-quinolinyl]carbonyl}-L-norleucine] |
